# According to patent US8420655B2, “Benzimidazole inhibitors of leukotriene production” (Boehringer Ingelheim International GmbH, priority 2009, dated 2013):
# Molecular target: T1, recombinant human FLAP protein (Homo sapiens, UniProt P20292)
# T1 construct: made in house; host or cells: Sf9 insect cells (membrane fraction, 100,000 x g pellet)
# T1 sequence (P20292 1-161): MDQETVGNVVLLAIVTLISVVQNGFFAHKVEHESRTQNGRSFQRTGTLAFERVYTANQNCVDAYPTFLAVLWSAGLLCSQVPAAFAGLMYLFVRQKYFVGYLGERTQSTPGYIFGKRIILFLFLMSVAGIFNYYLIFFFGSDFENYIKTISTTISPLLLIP
# Assay: FLAP binding assay, displacement of iodinated (125I) FLAP inhibitor, Scintillation Proximity Assay format
# Details: [125I]L-691,831 probe, membrane protein from sf9 cells; read-out: hFLAP binding IC50
# Procedure: Compounds are assessed for the ability to bind to FLAP in a binding assay that measures compound-specific displacement of an iodinated (^125I) FLAP inhibitor via a Scintillation Proximity Assay format (adapted from S. Charleson et al., Mol. Pharmacol., 1992, 41, 873-879).
# Cell pellets produced from sf9 insect cells expressing recombinant human FLAP protein are resuspended in buffer A [15 mM Tris-HCl (pH 7.5), 2 mM MgCl2, 0.3 mM EDTA, 1 mM PMSF]. The cells are lysed with a Dounce homogenizer and the material is centrifuged at 10,000×g for 10 minutes. The supernatant is then collected and centrifuged at 100,000×g for 60 minutes. To prepare membrane protein for an assay, an aliquot of the 100,000×g pellet is resuspended in 1 ml of buffer A, Dounce homogenized, and finally subjected to polytron mixing (30 seconds). Membrane protein (25 μl, 5 μg) is mixed with WGA SPA beads (Amersham) and stirred for 1 h. To an assay plate (Perkin Elmer FlexiPlate) is added 25 μl of test compound prepared in Binding buffer [100 mM Tris (pH 7.5), 140 mM NaCl, 5% glycerol, 2 mM EDTA, 0.5 mM TCEP, 0.05% Tween 20], 25 μl of [^125I]L-691,831 (an iodinated analog of MK-591, Charleson et al. Mol. Pharmacol., 41, 873-879, 1992) and finally 50 μl of the bead/protein mixture. (final concentrations: beads, 200 μg/well; protein, 5 μg/well; [^125I] probe, 0 08 nM/well (17 nCi/well). The plates are shaken for 2 h before reading on a Microbeta plate reader. Non-specific binding is determined by the addition of 10 μM cold L-691,831 compound.
row,Compound,IC50
1,"CC(C)(C)n1c(-c2cc(Br)ccc2-n2cncn2)nc2cc(-c3cnc(N)nc3)ccc21 [5-[2-(5-Bromo-2-1,2,4-triazol-1-yl-phenyl)-1-tert-butyl-1H-benzimidazol-5-yl]-pyrimidin-2-ylamine]",4.5 nM
2,"Cc1nc(-c2ccccc2-c2nc3cc(-c4cnc(N)nc4)ccc3n2C(C)(C)C)n(C)n1 [5-{1-tert-Butyl-2-[2-(2,5-dimethyl-2H-1,2,4-triazol-3-yl)-phenyl]-1H-benzimidazol-5-yl}-pyrimidin-2-ylamine]",1.8 nM
3,"Cn1ncnc1-c1ccccc1-c1nc2cc(-c3cnc(N)nc3)ccc2n1C(C)(C)C [5-{1-tert-Butyl-2-[2-(2-methyl-2H-1,2,4-triazol-3-yl)-phenyl]-1H-benzimidazol-5-yl}-pyrimidin-2-ylamine]",6.1 nM
4,Cn1nnc(-c2ccccc2-c2nc3cc(-c4cnc(N)nc4)ccc3n2C(C)(C)C)n1 [5-{1-tert-Butyl-2-[2-(2-methyl-2H-tetrazol-5-yl)-phenyl]-1H-benzimidazol-5-yl}-pyrimidin-2-ylamine],1.3 nM
5,"Cc1ncn(-c2ccccc2-c2nc3cc(-c4cnc(N)nc4)ccc3n2C(C)(C)C)n1 [5-{1-tert-Butyl-2-[2-(3-methyl-1,2,4-triazol-1-yl)-phenyl]-1H-benzimidazol-5-yl}-pyrimidin-2-ylamine]",1.6 nM
6,Cc1ccn(-c2ccccc2-c2nc3cc(-c4cnc(N)nc4)ccc3n2C(C)(C)C)n1 [5-{1-tert-Butyl-2-[2-(3-methyl-pyrazol-1-yl)-phenyl]-1H-benzimidazol-5-yl}-pyrimidin-2-ylamine],1.1 nM
7,CC(C)(C)n1c(-c2ccccc2-n2ccc(C(F)(F)F)n2)nc2cc(-c3cnc(N)nc3)ccc21 [5-{1-tert-Butyl-2-[2-(3-trifluoromethyl-pyrazol-1-yl)-phenyl]-1H-benzimidazol-5-yl}-pyrimidin-2-ylamine],4.5 nM
8,COc1ccc(-n2cc(Cl)cn2)c(-c2nc3cc(-c4cnc(N)nc4)ccc3n2C(C)(C)C)c1 [5-{1-tert-Butyl-2-[2-(4-chloro-pyrazol-1-yl)-5-methoxy-phenyl]-1H-benzimidazol-5-yl}-pyrimidin-2-ylamine],1.6 nM
9,CC(C)(C)n1c(-c2ccccc2-n2cc(Cl)cn2)nc2cc(-c3cnc(N)nc3)ccc21 [5-{1-tert-Butyl-2-[2-(4-chloro-pyrazol-1-yl)-phenyl]-1H-benzimidazol-5-yl}-pyrimidin-2-ylamine],4.1 nM
10,"Cc1ncnn1-c1ccccc1-c1nc2cc(-c3cnc(N)nc3)ccc2n1C(C)(C)C [5-{1-tert-Butyl-2-[2-(5-methyl-1,2,4-triazol-1-yl)-phenyl]-1H-benzimidazol-5-yl}-pyrimidin-2-ylamine]",3.3 nM
11,"CC(C)(C)n1c(-c2ccc(OC3CCOC3)cc2-n2cncn2)nc2cc(-c3cnc(N)nc3)ccc21 (stereo not drawn) [5-{1-tert-Butyl-2-[4-(tetrahydro-furan-3-yloxy)-2-1,2,4-triazol-1-yl-phenyl]-1H-benzimidazol-5-yl}-pyrimidin-2-ylamine]",10.6 nM
12,"Cc1c(-c2ccc(-n3cncn3)c(-c3nc4cc(-c5cnc(N)nc5)ccc4n3C(C)(C)C)c2)cnn1C [5-{1-tert-Butyl-2-[5-(1,5-dimethyl-1H-pyrazol-4-yl)-2-[1,2,4]triazol-1-yl-phenyl]-1H-benzoimidazol-5-yl}-pyrimidin-2-ylamine]",4 nM
13,"Cn1cc(-c2ccc(-n3cncn3)c(-c3nc4cc(-c5cnc(N)nc5)ccc4n3C(C)(C)C)c2)cn1 [5-{1-tert-Butyl-2-[5-(1-methyl-1H-pyrazol-4-yl)-2-[1,2,4]triazol-1-yl-phenyl]-1H-benzoimidazol-5-yl}-pyrimidin-2-ylamine]",2.4 nM
14,"CC(C)(C)n1c(-c2cc(-c3nn[nH]n3)ccc2-n2cncn2)nc2cc(-c3cnc(N)nc3)ccc21 [5-{1-tert-Butyl-2-[5-(2H-tetrazol-5-yl)-2-[1,2,4]triazol-1-yl-phenyl]-1H-benzoimidazol-5-yl}-pyrimidin-2-ylamine]",4.6 nM
15,"CC(C)(C)n1c(-c2cc(OC3CCOC3)ccc2-n2cncn2)nc2cc(-c3cnc(N)nc3)ccc21 (stereo not drawn) [5-{1-tert-Butyl-2-[5-(tetrahydro-furan-3-yloxy)-2-1,2,4-triazol-1-yl-phenyl]-1H-benzimidazol-5-yl}-pyrimidin-2-ylamine]",6.9 nM
16,"Cn1ncnc1-c1ccc(Cl)cc1-c1nc2cc(-c3cnc(N)nc3)ccc2n1C(C)(C)C [5-{1-tert-Butyl-2-[5-chloro-2-(2-methyl-2H-1,2,4-triazol-3-yl)-phenyl]-1H-benzimidazol-5-yl}-pyrimidin-2-ylamine]",1.2 nM
17,"Cc1noc(-c2ccc(Cl)cc2-c2nc3cc(-c4cnc(N)nc4)ccc3n2C(C)(C)C)n1 [5-{1-tert-Butyl-2-[5-chloro-2-(3-methyl-1,2,4-oxadiazol-5-yl)-phenyl]-1H-benzimidazol-5-yl}-pyrimidin-2-ylamine]",1.9 nM
18,"Cc1ncn(-c2ccc(Cl)cc2-c2nc3cc(-c4cnc(N)nc4)ccc3n2C(C)(C)C)n1 [5-{1-tert-Butyl-2-[5-chloro-2-(3-methyl-1,2,4-triazol-1-yl)-phenyl]-1H-benzimidazol-5-yl}-pyrimidin-2-ylamine]",1.4 nM
19,Cc1ccn(-c2ccc(Cl)cc2-c2nc3cc(-c4cnc(N)nc4)ccc3n2C(C)(C)C)n1 [5-{1-tert-Butyl-2-[5-chloro-2-(3-methyl-pyrazol-1-yl)-phenyl]-1H-benzimidazol-5-yl}-pyrimidin-2-ylamine],0.71 nM
20,"Cn1ncnc1-c1ccc(F)cc1-c1nc2cc(-c3cnc(N)nc3)ccc2n1C(C)(C)C [5-{1-tert-Butyl-2-[5-fluoro-2-(2-methyl-2H-1,2,4-triazol-3-yl)-phenyl]-1H-benzimidazol-5-yl}-pyrimidin-2-ylamine]",1.6 nM
21,"Cc1ncn(-c2ccc(F)cc2-c2nc3cc(-c4cnc(N)nc4)ccc3n2C(C)(C)C)n1 [5-{1-tert-Butyl-2-[5-fluoro-2-(3-methyl-1,2,4-triazol-1-yl)-phenyl]-1H-benzimidazol-5-yl}-pyrimidin-2-ylamine]",1.4 nM
22,COc1ccc(-c2csc(C)n2)c(-c2nc3cc(-c4cnc(N)nc4)ccc3n2C(C)(C)C)c1 [5-{1-tert-Butyl-2-[5-methoxy-2-(2-methyl-thiazol-4-yl)-phenyl]-1H-benzimidazol-5-yl}-pyrimidin-2-ylamine],1.7 nM
23,"COc1ccc(-c2nc(C)no2)c(-c2nc3cc(-c4cnc(N)nc4)ccc3n2C(C)(C)C)c1 [5-{1-tert-Butyl-2-[5-methoxy-2-(3-methyl-1,2,4-oxadiazol-5-yl)-phenyl]-1H-benzimidazol-5-yl}-pyrimidin-2-ylamine]",24 nM
24,"COc1ccc(-c2nc(C)ns2)c(-c2nc3cc(-c4cnc(N)nc4)ccc3n2C(C)(C)C)c1 [5-{1-tert-Butyl-2-[5-methoxy-2-(3-methyl-1,2,4-thiadiazol-5-yl)-phenyl]-1H-benzimidazol-5-yl}-pyrimidin-2-ylamine]",4.3 nM
25,"COc1ccc(-n2cnc(C)n2)c(-c2nc3cc(-c4cnc(N)nc4)ccc3n2C(C)(C)C)c1 [5-{1-tert-Butyl-2-[5-methoxy-2-(3-methyl-1,2,4-triazol-1-yl)-phenyl]-1H-benzimidazol-5-yl}-pyrimidin-2-ylamine]",2.2 nM
26,COc1ccc(-n2ccc(C)n2)c(-c2nc3cc(-c4cnc(N)nc4)ccc3n2C(C)(C)C)c1 [5-{1-tert-Butyl-2-[5-methoxy-2-(3-methyl-pyrazol-1-yl)-phenyl]-1H-benzimidazol-5-yl}-pyrimidin-2-ylamine],8.8 nM
27,"COc1ccc(-n2ncnc2C)c(-c2nc3cc(-c4cnc(N)nc4)ccc3n2C(C)(C)C)c1 [5-{1-tert-Butyl-2-[5-methoxy-2-(5-methyl-1,2,4-triazol-1-yl)-phenyl]-1H-benzimidazol-5-yl}-pyrimidin-2-ylamine]",1.5 nM
28,"Cc1ccc(-c2nc(C)no2)c(-c2nc3cc(-c4cnc(N)nc4)ccc3n2C(C)(C)C)c1 [5-{1-tert-Butyl-2-[5-methyl-2-(3-methyl-1,2,4-oxadiazol-5-yl)-phenyl]-1H-benzimidazol-5-yl}-pyrimidin-2-ylamine]",1.8 nM
29,"Cc1ncnn1-c1ccc(Cl)cc1-c1nc2cc(-c3cnc(N)nc3)ccc2n1C(C)(C)C [5-{1-tert-butyl-2-[5-chloro-2-(5-methyl-1,2,4-triazol-1-yl)-phenyl]-1H-benzimidazol-5-yl}-pyrimidin-2-ylamine]",6.9 nM
30,"CC(C)(C)n1c(-c2ccccc2-c2ncn(CC#N)n2)nc2cc(-c3cnc(N)nc3)ccc21 [(3-{2-[5-(2-Amino-pyrimidin-5-yl)-1-tert-butyl-1H-benzoimidazol-2-yl]-phenyl}-[1,2,4]triazol-1-yl)-acetonitrile]",4.2 nM
